Laboratory results published in patent US8008007B2, “S-adenosyl-L-methionine analogs with extended activated groups for transfer by methyltransferases” (RWTH Aachen, priority 2005, dated 2011).

Legend:
Format in all cases: biochemical
M.TaqI [1] = molecular target: T1, M.TaqI (Thermus aquaticus, UniProt P14385); assay: DNA protection assay with M.TaqI (wild-type) on phage lambda DNA; details: 1 μg phage lambda DNA, cofactor 300 μM, 60° C. for 4 h, then R.TaqI; 1 u = minimal enzyme amount fully protecting 1 μg DNA
T1 construct: made in house
T1 sequence (P14385 whole entry): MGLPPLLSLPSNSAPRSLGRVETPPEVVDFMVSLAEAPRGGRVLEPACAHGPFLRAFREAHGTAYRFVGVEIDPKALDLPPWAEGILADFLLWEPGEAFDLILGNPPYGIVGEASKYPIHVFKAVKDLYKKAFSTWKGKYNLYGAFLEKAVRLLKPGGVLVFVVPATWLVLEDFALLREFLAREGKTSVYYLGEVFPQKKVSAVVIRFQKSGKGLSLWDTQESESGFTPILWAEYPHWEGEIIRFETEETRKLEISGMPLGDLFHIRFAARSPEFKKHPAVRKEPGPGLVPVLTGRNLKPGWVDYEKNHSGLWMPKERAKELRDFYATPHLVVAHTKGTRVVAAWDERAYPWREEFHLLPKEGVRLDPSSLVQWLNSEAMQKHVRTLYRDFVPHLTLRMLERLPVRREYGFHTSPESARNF
From the text: (§1) Transfer kinetics of the activated ethyl (—CH2CH3), propyl (—CH2CH2CH3), prop-2-enyl (—CH2CH═CH2), prop-2-ynyl (—CH2C≡CH), but-2-ynyl (—CH2C≡CCH3), pent-2-ynyl (—CH2C≡CCH2CH3) and benzyl group (—CH2C6H5) from cofactors 3-9 by the DNA adenine-N6 methyltransferase M.TaqI and its variant V21 G, the DNA cytosine-C5 methyltransferase M.HhaI and its variant Q82A, the DNA cytosine-N4 methyltransferase M.BcnIB and the DNA cytosine-C5 methyltransferase M.SssI variant Q142A to phage lambda DNA (48502 base pairs) were investigated using a DNA protection assay. This assay makes use of the fact that DNA methyltransferase-catalyzed modifications of nucleobases within the recognition sequences of restriction endonucleases can protect the DNA against fragmentation by these enzymes. […] Unmodified DNA containing 5′-TCGA-3′ recognition sequences is readily fragmentated by R.TaqI. After DNA modification by M.TaqI in the presence of a cofactor with an activated group Z—R modified 5′-TCGA^Z—R-3′ sequences are formed and, as a result, R.TaqI is unable to fragment the modified DNA. Occurrence of fragmentation is then analyzed by agarose gel electrophoresis.
(§2) By varying the amounts of DNA methyltransferase, this assay is used to investigate the enzymatic activities of the different DNA methyltransferases with cofactors 3-9 and compare them to the enzymatic activities with the natural cofactor 1. The minimal amount of DNA methyltransferase needed to fully protect 1 μg of phage lambda DNA against restriction endonuclease fragmentation under the given experimental conditions is defined as one enzyme unit (u).
(§3) Afterwards a solution (30 μL) containing R.TaqI restriction endonuclease (40 u, MBI Fermentas), bovine serum albumin (0.166 mg/mL) and buffer (16.6 mM Tris hydrochloride, 166 mM sodium chloride, 8.3 mM magnesium chloride, pH 8.0) was added to each dilution and incubation at 60-65° C. was continued for 15 min. Loading buffer (10 μL, 0.25% bromphenol blue, 30% glycerol) was added to each sample, and aliquots (12 μL) were analyzed for the degree of protection by agarose gel (1%) electrophoresis. Parallel control experiments were performed with phage lambda DNA in the absence of M.TaqI and in the presence of M.TaqI (200 ng).
Afterwards a solution (10 μL) containing R.TaqI restriction endonuclease (10 u, MBI Fermentas), bovine serum albumin (0.1 mg/mL) and buffer (33 mM Tris acetate, 66 mM potassium acetate, 10 mM magnesium acetate, pH 7.9) was added to each dilution and incubation was continued at 65° C. for 1 h. […] Parallel control experiments were performed with phage lambda DNA in the absence of M.TaqI and in the presence of M.TaqI (180 ng).

M.TaqI-V21G = molecular target: T2, M.TaqI-V21G (Thermus aquaticus, UniProt P14385, V21G); assay: DNA protection assay with M.TaqI variant V21G on phage lambda DNA; details: 1 μg phage lambda DNA, cofactor 300 μM, 60° C. for 4 h, then R.TaqI
T2 construct: made in house
T2 sequence (P14385 whole entry V21G): as the sequence (P14385 whole entry) above, with V21G counted along it
From the text: as §1, §2, §3
Therefore, the codon for V21 was changed to a codon for glycine by standard PCR mutagenesis (Ho et al., (1989) Gene 77, 51-59) and the correct DNA sequence of the complete gene was verified by DNA sequencing. […] The DNA protection assay with the V21G variant was performed as described for the wild type (Example 3A.1).

M.TaqI [2] = molecular target: T1, M.TaqI; assay: Modification of adenine-N6 in duplex oligodeoxynucleotide I.II by M.TaqI, nucleoside analysis by HPLC/ESI-MS; details: 37° C. over night, near-stoichiometric enzyme
From the text: Transfer of the activated ethyl (CH2CH3), propyl (CH2CH2CH3), prop-2-enyl (CH2CHCH2), prop-2-ynyl group (CH2CCH), but-2-ynyl (CH2CCCH3), pent-2-ynyl (CH2CCCH2CH3) or benzyl group (CH2C6H5) from cofactors 3-9 by the DNA adenine-N6 methyltransferase M.TaqI, the DNA cytosine-C5 methyltransferase M.HhaI variant Q82A or the DNA cytosine-N4 methyltransferase M.BcnIB to DNA was first investigated using short duplex oligodeoxynucleotides as substrates. After enzymatic transfer the duplex oligodeoxynucleotides were enzymatically fragmented and the resulting modified nucleosides were analyzed by reversed-phase HPLC coupled with ESI-MS.
M.TaqI was denatured by heating to 95° C. for 10 min and removed by centrifugation ([…], 2 min). The modified duplex oligodeoxynucleotides I^Z—R-II were desalted by gel filtration (NAP-5 column, Amersham Biosciences, Freiburg, Germany), eluted with water (1 mL) and lyophilized.
The modified duplex oligodeoxynucleotides I^Z—R-II were dissolved in buffer (100 μL, 10 mM Tris hydrochloride, 10 mM magnesium chloride, 1 mM zinc acetate, pH 7.5) containing Nuclease PI (1500 u, Sigma, Taufkirchen, Germany) and calf intestine alkaline phosphatase (30 u, MBI Fermentas, St. Leon-Rot, Germany) and incubated at 37° C. for 4 h. Nucleosides were analyzed by reversed-phase HPLC (Symmetry-C18 5 μm, 100 Å, 250×4.6 mm, equipped with a Symmetry-C18 5 μm, 100 Å, 20×4.6 mm pre-column, Waters, Eschborn, Germany). Compounds were eluted with acetonitrile (5% for 7 min, followed by linear gradients to 6% in 15 min, to 35% in 8 min and to 70% in 2 min) in triethylammonium acetate buffer (10 mM, pH 7.0) at a flow of 1 mL/min and detected at 254 nm.
For HPLC-coupled ESI-MS measurements compounds were eluted with methanol (0% for 3 min, followed by a linear gradient to 100% in 22 min) in ammonium formate buffer (20 mM, pH 3.5). A post-column mobile phase modification (equal co-flow of 96% methanol, 4% formic acid) was used to enhance the detection efficiency of 2′-deoxyadenosine and its derivatives. Mass spectra were recorded in 200-370 m/z range.
The hemimethylated duplex oligodeoxynucleotide I.II (compare Scheme 5, Example 2A) was produced by mixing equal molar amounts of complementary single-stranded oligodeoxynucleotide I (5′-GCCGCTCGATGCCG-3′) (SEQ. ID NO. 1) and II (5′-CGGCATCGA^MeGCGGC-3′, A^Me=N6-methyl-2′-deoxyadenosine) (SEQ ID NO. 2) in water, heating at 85° C. for 5 min and slow cooling to room temperature. […] The solution was heated to 95° C. for 10 min, supplemented with Proteinase K and incubated at 55° C. for 2 h. Hydrolysis products were removed by gel filtration (G-25 column, Amersham Biosciences).
The obtained solution was treated with buffer ( 1/10 volume, 100 mM Tris hydrochlorid, 100 mM magnesium chloride, 10 mM zinc acetate, pH 7.5) containing Nuclease P1 (1.14 u, Sigma, Taufkirchen, Germany) and calf intestine alkaline phosphatase (18 u, MBI Fermentas), incubated at 42° C. for 4 h and passed through a Microcon YM-3 spin column (Amicon). Nucleosides were analyzed by reversed-phase HPLC (Discovery HS C18 75×2.1 mm, 3 μm, equipped with a Supelguard Discovery HS C18 20×2.1 mm, 5 μm, pre-column, Supelco, Germany) coupled with a mass spectrometric detector (HP 1100 series ESI-MS equipped with single quadruple). Compounds were eluted with methanol (0% for 3 min, followed by linear gradients to 20% in 15 min and to 80% in 2 min) in ammonium formate buffer (20 mM, pH 3.5) at a flow of 0.3 mL/min. For on-line mass spectrometric detection post-column mobile phase modification (equal co-flow of 96% methanol, 4% formic acid and 1 mM sodium hydroxide) was used to enhance the detection efficiency of 2′-deoxyadenosine, 2′-deoxycytidine and their derivatives. Mass spectra were recorded in 50-600 m/z range.

M.HhaI = molecular target: T3, M.HhaI (Haemophilus parahaemolyticus, UniProt P05102); assay: DNA protection assay with M.HhaI (wild-type) on phage lambda DNA; details: 1.16 μg phage lambda DNA, cofactor 300 μM, 37° C. for 4 h, then R.Hin6I; pH 7.4 (pH 6.0 for cofactor 6)
T3 construct: made in house
T3 sequence (P05102 whole entry): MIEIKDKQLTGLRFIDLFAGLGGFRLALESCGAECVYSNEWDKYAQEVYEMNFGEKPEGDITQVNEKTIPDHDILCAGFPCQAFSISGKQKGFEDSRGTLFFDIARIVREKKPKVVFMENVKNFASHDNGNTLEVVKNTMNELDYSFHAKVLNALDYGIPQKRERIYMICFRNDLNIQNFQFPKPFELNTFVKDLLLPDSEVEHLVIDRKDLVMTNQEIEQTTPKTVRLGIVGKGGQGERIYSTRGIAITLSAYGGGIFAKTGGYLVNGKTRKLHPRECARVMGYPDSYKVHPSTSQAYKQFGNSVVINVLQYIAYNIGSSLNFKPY
From the text: as §1, §2
(§4) Afterwards, the reactions were stopped by heating to 80° C. for 10 min. […] Parallel control experiments were performed with phage lambda DNA in the absence of M.HhaI and in the presence of M.HhaI (278 ng).

M.HhaI-Q82A = molecular target: T4, M.HhaI-Q82A (Haemophilus parahaemolyticus, UniProt P05102, Q82A); assay: DNA protection assay with M.HhaI variant Q82A on phage lambda DNA; details: 1.16 μg phage lambda DNA, cofactor 300 μM, 37° C. for 4 h, then R.Hin6I; pH 7.4 (pH 6.0 for cofactor 6)
T4 construct: made in house
T4 sequence (P05102 whole entry Q82A): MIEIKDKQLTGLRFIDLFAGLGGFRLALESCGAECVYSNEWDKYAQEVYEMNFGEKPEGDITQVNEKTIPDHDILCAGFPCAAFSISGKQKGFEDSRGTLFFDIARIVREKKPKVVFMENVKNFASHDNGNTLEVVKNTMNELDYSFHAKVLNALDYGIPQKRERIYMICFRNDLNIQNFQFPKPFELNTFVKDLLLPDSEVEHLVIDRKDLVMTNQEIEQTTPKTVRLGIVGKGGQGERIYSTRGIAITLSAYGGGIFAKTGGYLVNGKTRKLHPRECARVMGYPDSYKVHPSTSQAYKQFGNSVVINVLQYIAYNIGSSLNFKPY
From the text: as §1, §2, §4
The DNA protection assay with the M.HhaI variant Q82A (see Example 2B) was performed as described for the wild type enzyme (Example 3B.1).

M.BcnIB = assay: DNA protection assay with M.BcnIB (wild-type) on phage lambda DNA; details: 1.10 μg phage lambda DNA, cofactor 300 μM, 37° C. for 4 h, then R.BcnI; pH 7.4 (pH 6.0 for cofactor 6)
From the text: as §1, §2
Afterwards the reactions were stopped by heating to 80° C. for 10 min. A solution (10 μL) containing R.BcnI restriction endonuclease (12 u, MBI Fermentas), bovine serum albumin (0.1 mg/mL) and buffer (33 mM Tris acetate, 66 mM potassium acetate, 26.5 mM magnesium chloride, pH 7.9) was added to each dilution and incubation at 37° C. was continued for 1 h. […] Parallel control experiments were performed with phage lambda DNA in the absence of M.BcnIB and in the presence of M.BcnIB (144 ng).

M.SssI-Q142A = molecular target: T5, M.SssI-Q142A (Spiroplasma monobiae, UniProt P15840, Q142A); assay: DNA protection assay with M.SssI variant Q142A on phage lambda DNA; details: 1 μg phage lambda DNA, cofactor 300 μM, 37° C. for 4 h, then R.BstUI
T5 construct: made in house
T5 sequence (P15840 whole entry Q142A): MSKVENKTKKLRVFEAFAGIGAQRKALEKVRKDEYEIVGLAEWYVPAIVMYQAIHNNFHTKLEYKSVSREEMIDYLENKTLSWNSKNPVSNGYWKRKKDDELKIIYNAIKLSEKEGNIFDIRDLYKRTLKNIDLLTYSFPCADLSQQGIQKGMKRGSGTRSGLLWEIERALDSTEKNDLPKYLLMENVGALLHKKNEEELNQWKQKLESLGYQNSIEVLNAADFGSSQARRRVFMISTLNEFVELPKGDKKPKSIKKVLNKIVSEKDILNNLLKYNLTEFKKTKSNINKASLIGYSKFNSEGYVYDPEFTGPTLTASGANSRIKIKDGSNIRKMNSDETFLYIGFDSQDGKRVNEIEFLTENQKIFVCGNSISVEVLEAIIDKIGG
From the text: as §1
By varying the amounts of DNA methyltransferase, this assay is used to investigate the enzymatic activities of the different DNA methyltransferases with cofactors 3-9 and compare them to the enzymatic activities with the natural cofactor 1. […]
Two fold serial dilutions (20 μL) of M.SssI-Q142A (starting with 3300 ng, 73 pmol) in buffer (10 mM Tris hydrochloride, 50 mM sodium chloride, 1 mM dithiothreitol, pH 7.9), phage lambda DNA (1 μg, 31.3 fmol, 3113 5′-CG-3′ recognition sequences, […] recognition sequences, MBI Fermentas) and the natural cofactor 1 (300 μM) or cofactor analogs 5 and 7 (300 μM) were incubated at 37° C. for 4 h. […] Loading buffer (10 μL, 0.25% bromphenol blue, 30% glycerol) was added to each sample, and aliquots (15 μL) were analyzed for the degree of protection by agarose gel (1%) electrophoresis.

Nc1ncnc2c1ncn2C1OC(C[S+](CCC(N)C(=O)O)Cc2ccccc2)C(O)C1O (mixture of isomers) [Cofactor 9]
specific activity of M.TaqI with the cofactor (M.TaqI [1]): 640 u/μg | specific activity of M.TaqI-V21G with the cofactor (M.TaqI-V21G): 2560 u/μg | cofactor function for M.TaqI (transfer of group Z-R to adenine-N6) (M.TaqI [2]): functions as a cofactor

C[S+](CCC(N)C(=O)O)CC1OC(n2cnc3c(N)ncnc32)C(O)C1O (stereo not drawn) [Cofactor 1]
specific activity of M.TaqI with the cofactor (M.TaqI [1]): 40960 u/μg | specific activity of M.TaqI-V21G with the cofactor (M.TaqI-V21G): 320 u/μg | specific activity of M.HhaI with the cofactor (M.HhaI): 460 u/μg | specific activity of M.HhaI-Q82A with the cofactor (M.HhaI-Q82A): 115 u/μg | specific activity of M.BcnIB with the cofactor (M.BcnIB): 444 u/μg | specific activity of M.SssI-Q142A with the cofactor (M.SssI-Q142A): 20 u/μg
